In patent publication US20060216761A1, “Isolation material for hormone disrupting substance, method of concentrating and method of clean-up” (priority 2002, published 2006):

B1: EE2-8-18: anti-ethynyl estradiol monoclonal antibody from mouse hybridoma EE2-8-18 line (antibody, V domains shown)
VH: VQVKESGPGLVAPSQSLSISCTVSGFPLTSYGVQWVRQPPGKGLEWLGVIWPGGSTNYNSALMSRLSISKDNSKSQVFLKMNSLQTDDTAMYYCAGWFQTGPRLFAYWGQGTLVTVSA
VL: DIQMTQSPASLSASVGETVTITCRASENIHSYLAWYQQKQGKSPQVLVYNAKTLGEGVSSRFSGSGSGTQFSLKINSLQPEDFGTYYCQNHYGSPWTFGGGTKLESK
modifications: Mouse
notes: anti-ethynyl estradiol monoclonal antibody from mouse hybridoma EE2-8-18 line
B2: EE2-3: anti-ethynyl estradiol monoclonal antibody from mouse hybridoma EE2-3 line (antibody)
VH: VTLKXSGPGILQPSQTLSLTCSFSGFSLSTSDLGVSWIRQTSGKGLEWLAHIYWNDDKYYNPSLKSRLTISKDTSGNLVFLRITSVDTDDSATYYCARSPLYGSLTYWGQGTLVTVSA
light: DIVMSQSPSSLAVSVGEKVTLNCKSSQSLLNSRTRKNYLAWYQQKPGQSPKLLISWASTRESGVPDRFTGSGSGTDFTLTISSVQAEDLAVYYCNQFYYLLTFGAGTKLELKRADAAPTVSIFPPSSEQLTSGGASVVCFLNNFYPKDINVKWKIDGSERQNGVLNSWTDQDSKDSTYSMSSTLTLTKDEYERHNSYTCEATHKTSTSPIVKSFNRNE
modifications: Mouse; (5)..(5) Xaa = unknown for each location where they appear
notes: anti-ethynyl estradiol monoclonal antibody from mouse hybridoma EE2-3 line

System: purified anti-estrogen polyclonal antibody
Experiment: Cross reactivity of purified anti-estrogen polyclonal antibody
Assay type: binding, rabbit
Details: assuming E2=100%
Procedure: In the E3-16G-KLH-immunized rabbits, third immunization (immunization number 3) led to an equilibrium of antibody titer, and 168 mg of purified anti-estrogen polyclonal antibody was obtained from one rabbit.
In the case of Oc1ccc(Cl)cc1Cl [2,4-Dichlorophenol (2,4DCP), 2,4-Dichlorophenol], the Cross reactivity is reported as <0.02%. Work on C[C@]12CC[C@@H]3c4ccc(O)cc4CC[C@H]3[C@@H]1CC[C@@H]2O [17β-Estradiol (E2), 17β-Estradiol] yielded a Cross reactivity of 100%. In the case of CC(C)(c1ccc(O)cc1)c1ccc(O)cc1 [Bisphenol A (BPA), Bisphenol A], the Cross reactivity is reported as <0.02%. In the case of CCCCC(CC)COC(=O)c1ccccc1C(=O)OCC(CC)CCCC (stereo not drawn) [Diethylhexyl phthalate (DEHP), Diethylhexyl phthalate], the Cross reactivity is reported as <0.02%. C[C@]12CC[C@@H]3c4ccc(O)cc4CC[C@H]3[C@@H]1C[C@@H](O)[C@@H]2O [Estriol (E3), Estriol] gave a Cross reactivity of 69%. With C#C[C@]1(O)CC[C@H]2[C@@H]3CCc4cc(O)ccc4[C@H]3CC[C@@]21C [Ethynylestradiol (EE2), Ethynylestradiol] the Cross reactivity was 7%. In the case of “Nonylphenol ethoxylate [Nonylphenol ethoxylate (NP10EO)]”, the Cross reactivity is reported as <0.02%. For t-Nonylphenol [t-Nonylphenol (NP)], the Cross reactivity was <0.02%.

System: purified anti-resin plasticizer antibody
Experiment: Cross reactivity of purified anti-resin plasticizer antibody
Assay type: binding, rabbit
Details: assuming DBP=100%
CCCCOC(=O)c1ccccc1C(=O)OCCCC [Dibutyl phthalate] showed a Cross reactivity of 100%. For O=C(OC1CCCCC1)c1ccccc1C(=O)OC1CCCCC1 [Dicyclohexyl phthalate], the Cross reactivity was <1%. In the case of CCOC(=O)c1ccccc1C(=O)OCC [Diethyl phthalate], the Cross reactivity is reported as 7%. For CCCCC(CC)COC(=O)CCCCC(=O)OCC(CC)CCCC (stereo not drawn) [Diethylhexyl adipate], the Cross reactivity was <1%. In the case of CCCCC(CC)COC(=O)c1ccccc1C(=O)OCC(CC)CCCC (stereo not drawn) [Diethylhexyl phthalate (DEHP), Diethylhexyl phthalate], the Cross reactivity is reported as <1%. CCCCCCOC(=O)c1ccccc1C(=O)OCCCCCC [Dihexyl phthalate] showed a Cross reactivity of 4%. In the case of CC(C)CCCCCCOC(=O)c1ccccc1C(=O)OCCCCCCC(C)C [Diisononyl phthalate], the Cross reactivity is reported as <1%. CCCCCOC(=O)c1ccccc1C(=O)OCCCCC [Dipentyl phthalate] showed a Cross reactivity of 10%. CCCOC(=O)c1ccccc1C(=O)OCCC [Dipropyl phthalate] gave a Cross reactivity of 27%.

System: purified anti-resin component antibody
Experiment: Cross reactivity of purified anti-resin component antibody
Assay type: binding, rabbit
Details: assuming BPA=100%
Procedure: Also, even in the BPA-2-KLH-immunized rabbits, sixth immunization (immunization number 6) led to an equilibrium of antibody titer, and 178 mg of purified anti-resin component antibody was obtained from one rabbit. When assuming BPA=100% for this purified antibody, cross reactivity was as shown in Table 12; as specificity for BPA was high, it was proven that BPA only can be specifically concentrated or cleaned up.
In the case of CC(O)(Cc1ccc(O)cc1)c1ccc(O)cc1 (stereo not drawn) [1,2-Bis(4-hydroxyphenyl)-2-propanol], the Cross reactivity is reported as <0.4%. Work on CC(CO)(c1ccc(O)cc1)c1ccc(O)cc1 [2,2′-Bis(4-hydroxyphenyl)-1-propanol] yielded a Cross reactivity of 9.3%. For CC(CCC(=O)O)(c1ccc(O)cc1)c1ccc(O)cc1 [4,4′-Bis(p-hydroxyphenyl)pentanoic acid], the Cross reactivity was <0.4%. In the case of Oc1ccc(Oc2ccc(O)cc2)cc1 [4,4′-Dihydroxydiphenyl ether], the Cross reactivity is reported as <0.4%. With CC(=O)Oc1ccc(C(C)(C)c2ccc(OC(C)=O)cc2)cc1 [BPA diacetate] the Cross reactivity was 11.1%. For CC(C)(c1ccc(OCC2CO2)cc1)c1ccc(OCC2CO2)cc1 (stereo not drawn) [BPA diglycidyl ether], the Cross reactivity was <0.4%. C=C(C)C(=O)Oc1ccc(C(C)(C)c2ccc(OC(=O)C(=C)C)cc2)cc1 [BPA dimethacrylate] showed a Cross reactivity of 2.7%. Oc1ccc(Cc2ccc(O)cc2)cc1 [Bis(p-hydroxyphenyl)methane] gave a Cross reactivity of 1.0%. For O=S(=O)(c1ccc(OCCO)cc1)c1ccc(OCCO)cc1 [Bis[4-(2-hydroxyethoxy)phenyl]sulfone], the Cross reactivity was <0.4%. Molecule CC(C)(c1ccc(O)cc1)c1ccc(O)cc1 [Bisphenol A (BPA), Bisphenol A] has a Cross reactivity of 100%. CCC(C)(c1ccc(O)cc1)c1ccc(O)cc1 [Bisphenol B (BPB), Bisphenol B] showed a Cross reactivity of 22.5%. Molecule CC(c1ccc(O)cc1)c1ccc(O)cc1 [Bisphenol E (BPE), Bisphenol E] has a Cross reactivity of 6.6%. In the case of O=S(=O)(c1ccc(O)cc1)c1ccc(O)cc1 [Bisphenol S (BPS), Bisphenol S], the Cross reactivity is reported as <0.4%. In the case of O=C(c1ccc(O)cc1)c1ccc(O)cc1 [p,p′-Dihydroxybenzophenone], the Cross reactivity is reported as <0.4%.

System: not listed separately
Experiment: Resistance of monoclonal antibody to a detergent
Parameters: species or system mouse
Details: compared with antibody from EE2-277 line
In the case of B1, the “resistance to a detergent of the antibody” value is reported as “slightly lower than that of one from EE2-277 line”. For B2, the “resistance to a detergent of the antibody” value was “the same as that of one from EE2-277 line”.
